Assay results taken from US7034035B2, “Fungicidal mono-, bi-, and tri-cycloheteroalkyl amides and their compositions, methods of use and preparation” (priority 1999, dated 2006).
Like-named read-outs stand apart in the source and are kept apart here.

Assays:
[1] = tested on: Puccinia recondita—PUCCRT; assay: Brown Rust of Wheat, in vivo whole plant, 24 Hour Protectant; conditions: inoculated after 24 hours; for pest or weed control at 100 ppm: Puccinia, read-out: PUCCRT in vivo 1 Day Protectant
Ustilago maydis (USTIMA) = assay: microbe, parasite or virus in culture; assay type: cell-based
[2] = tested on: Rhizoctonia solani (RHIZSO); assay: microbe, parasite or virus in culture; assay type: cell-based
Septoria tritici—SEPTTR = assay: Leaf Blotch of Wheat, in vivo whole plant, 24 Hour Protectant; conditions: inoculated after 24 hours; for pest or weed control at 100 ppm: Zymoseptoria tritici, read-out: SEPTTR in vivo 1 Day Protectant
[3] = tested on: Leptosphaeria nodorum—LEPTNO; assay: Glume Blotch of Wheat, in vivo whole plant, 24 Hour Protectant; conditions: for pest or weed control at 100 ppm: Leptosphaeria, 24 h, read-out: LEPTNO in vivo 1 Day Protectant
Erysiphe graminis—ERYSGT = assay: Powdery Mildew of Wheat, in vivo whole plant, 24 Hour Protectant; conditions: for pest or weed control at 100 ppm: Erysiphe, in Triticum aestivum, 24 h, read-out: ERYSGT in vivo 1 Day Protectant; for ERYSGT in vivo 1 Day Protectant: inoculated after 24 hours
[4] = wheat (cultivar Yuma), sprayed at 100 ppm, control of fungal infection vs untreated plants
[5] = wheat (cultivar Yuma), sprayed at 100 ppm, inoculated after 24 hours, control of fungal infection vs untreated plants
[6] = wheat plants sprayed at 100 ppm, control vs untreated plants

Row | SMILES | pest or weed control at 100 ppm [1, 4] | USTIMA in vitro Growth Inhibition (Ustilago maydis (USTIMA)) | RHIZSO in vitro Growth Inhibition [2] | pest or weed control at 100 ppm (Septoria tritici—SEPTTR; [4]) | pest or weed control at 100 ppm [3, 5] | also measured
1 | O=C(Nc1ccc(Cl)cc1)c1ncccc1O [Compound 213] | 75 to 100% | − (key: +: at least 80% growth inhibition; −: less than 80% growth inhibition) | − (key: +: at least 80% growth inhibition; −: less than 80% growth inhibition) |  |  | 
2 | COc1ccnc(C(=O)NCC#Cc2ccccc2)c1O [Compound 240] |  | − (key: +: at least 80% growth inhibition; −: less than 80% growth inhibition) | − (key: +: at least 80% growth inhibition; −: less than 80% growth inhibition) | 75 to 100% |  | 
3 | CCC1(C)CC(NC(=O)c2nccc(OC)c2O)CC(C)(C)C1 (stereo not shown) [Compound 251] | 75 to 100% | − (key: +: at least 80% growth inhibition; −: less than 80% growth inhibition) | − (key: +: at least 80% growth inhibition; −: less than 80% growth inhibition) | 75 to 100% | 75 to 100% | 
4 | COc1ccnc(C(=O)NC2CC(C)(C)C(Oc3cc(C(F)(F)F)cc(C(F)(F)F)n3)C(C)(C)C2)c1O (stereo not shown) [Compound 272] |  | − (key: +: at least 80% growth inhibition; −: less than 80% growth inhibition) | − (key: +: at least 80% growth inhibition; −: less than 80% growth inhibition) | 75 to 100% |  | 
5 | COc1ccnc(C(=O)NC2CCCC(Sc3ccc(C(F)(F)F)cn3)C2)c1O (stereo not shown) [Compound 274] | 75 to 100% | − (key: +: at least 80% growth inhibition; −: less than 80% growth inhibition) | + (key: +: at least 80% growth inhibition; −: less than 80% growth inhibition) |  | 75 to 100% | 
6 | COc1ccnc(C(=O)NC2CC(C)(C)CCCC2C)c1O (stereo not shown) [Compound 277] |  | − (key: +: at least 80% growth inhibition; −: less than 80% growth inhibition) | − (key: +: at least 80% growth inhibition; −: less than 80% growth inhibition) | 75 to 100% |  | 
7 | COc1ccnc(C(=O)NC2CC(C)(C)/C=C\CC(C)(C)C2)c1O (stereo not shown) [Compound 283] |  | − (key: +: at least 80% growth inhibition; −: less than 80% growth inhibition) | − (key: +: at least 80% growth inhibition; −: less than 80% growth inhibition) | 75 to 100% |  | 
8 | COc1ccnc(C(=O)N[C@@H]2CC3CC2c2ccccc23)c1O (stereo partly shown) [Compound 290] | 75 to 100% | − (key: +: at least 80% growth inhibition; −: less than 80% growth inhibition) | + (key: +: at least 80% growth inhibition; −: less than 80% growth inhibition) |  | 75 to 100% | 
9 | COc1ccnc(C(=O)N[C@H]2CC3CC2[C@@H](COCc2cccc(C(F)(F)F)c2)C3)c1O (stereo partly shown) [Compound 295] |  | − (key: +: at least 80% growth inhibition; −: less than 80% growth inhibition) | + (key: +: at least 80% growth inhibition; −: less than 80% growth inhibition) | 75 to 100% |  | 
10 | COc1ccnc(C(=O)NC2C3CC4C(C3Cl)C42)c1O (stereo not shown) [Compound 304] |  | − (key: +: at least 80% growth inhibition; −: less than 80% growth inhibition) | + (key: +: at least 80% growth inhibition; −: less than 80% growth inhibition) | 75 to 100% |  | 
11 | COc1ccnc(C(=O)N[C@H]2CO[C@H](C(C)Cc3ccc(C(C)(C)C)cc3)OC2)c1O (stereo partly shown) [Compound 316] | 75 to 100% | + (key: +: at least 80% growth inhibition; −: less than 80% growth inhibition) | − (key: +: at least 80% growth inhibition; −: less than 80% growth inhibition) |  |  | 
12 | COc1ccnc(C(=O)N[C@H]2CO[C@@H](C(C)Cc3ccc(C(C)(C)C)cc3)OC2)c1O (stereo partly shown) [Compound 317] | 75 to 100% | − (key: +: at least 80% growth inhibition; −: less than 80% growth inhibition) | − (key: +: at least 80% growth inhibition; −: less than 80% growth inhibition) |  |  | 
13 | COc1ccnc(C(=O)N[C@H]2CO[C@](C)(C(C)CC3=C(C)CCCC3(C)C)OC2)c1O (stereo partly shown) [Compound 319] | 75 to 100% | − (key: +: at least 80% growth inhibition; −: less than 80% growth inhibition) | − (key: +: at least 80% growth inhibition; −: less than 80% growth inhibition) |  |  | 
14 | COc1ccnc(C(=O)NC2C(=O)c3ccc(-c4ccco4)cc3OC2C)c1O (stereo not shown) [Compound 323] |  | − (key: +: at least 80% growth inhibition; −: less than 80% growth inhibition) | + (key: +: at least 80% growth inhibition; −: less than 80% growth inhibition) | 75 to 100% | 75 to 100% | 
15 | COc1ccnc(C(=O)N[C@@H](Cc2ccc(OCc3ccccc3)cc2)C(=O)OCc2ccccc2)c1O [Compound 339] | 75 to 100% | − (key: +: at least 80% growth inhibition; −: less than 80% growth inhibition) | − (key: +: at least 80% growth inhibition; −: less than 80% growth inhibition) | 75 to 100% | 75 to 100% | 
16 | COc1ccnc(C(=O)NC(COC(=O)CCc2ccccc2)C(=O)OC(C)COC(=O)C(C)C)c1O (stereo not shown) [Compound 359] | 75 to 100% |  |  | 75 to 100% |  | 
17 | COc1ccnc(C(=O)N[C@H]2COC(=O)[C@H](Cc3ccccc3)[C@@H](OCC(C)C)[C@H](C)OC2=O)c1O [Compound 384] |  |  |  |  | 75 to 100% | pest or weed control at 100 ppm (Erysiphe graminis—ERYSGT): 75 to 100%
18 | COc1ccnc(C(=O)N[C@H]2COC(=O)[C@H](Cc3ccccc3)[C@@H](OC(=O)Cc3ccccc3)[C@H](C)OC2=O)c1O [Compound 395] |  |  |  |  |  | LEPTNO in vivo 1 Day Protectant [3, 5]: + (25-74% control of fungal infection); PUCCRT in vivo 1 Day Protectant [1, 4]: + (25-74% control of fungal infection); SEPTTR in vivo 1 Day Protectant (Septoria tritici—SEPTTR; [4]): + (25-74% control of fungal infection); ERYSGT in vivo 1 Day Protectant (Erysiphe graminis—ERYSGT; wheat (cultivar Monon), sprayed at 100 ppm, control of fungal infection vs untreated plants): − (<25% control of fungal infection)
19 | COc1ccnc(C(=O)N[C@H]2COC(=O)[C@H](CC3CCCC3)[C@@H](OC(=O)C(C)C)[C@H](C)OC2=O)c1O [Compound 402] |  |  |  |  | 75 to 100% | pest or weed control at 100 ppm (Erysiphe graminis—ERYSGT): 75 to 100%
20 | COc1cccc(Oc2ccc(NC(=O)c3nccc(OC)c3O)cc2)c1 [Compound 435] |  |  |  |  |  | LEPTNO in vivo 1 Day Protectant [3, 5]: + (25-74% control of fungal infection); PUCCRT in vivo 1 Day Protectant [1, 4]: − (<25% control of fungal infection); SEPTTR in vivo 1 Day Protectant (Septoria tritici—SEPTTR; [4]): − (<25% control of fungal infection); pest or weed control at 100 ppm (Erysiphe graminis—ERYSGT): < 25%
21 | CCCC[C@H]1C(=O)O[C@H](C)C(NC(=O)c2cccc(NC(=O)c3nccc(OC)c3O)c2O)C(=O)O[C@@H](C)[C@@H]1OC(=O)CC(C)C (stereo partly shown) [Compound 473] |  |  |  |  |  | pest or weed control at 100 ppm [3]: 75 to 100%; PUCCRT in vivo 1 Day Protectant [1, 6]: + (25-74% control of fungal infection); SEPTTR in vivo 1 Day Protectant (Septoria tritici—SEPTTR; [6]): + (25-74% control of fungal infection); ERYSGT in vivo 1 Day Protectant (Erysiphe graminis—ERYSGT; [6]): − (<25% control of fungal infection)
